Data: the kinase profiling compilation of Christmann-Franck et al. (2016)

What was measured:
Test in all cases: KINOMEscan competition binding
Settings in all cases: compound 10.0 µM
MYO3A (human) = MYO3A (human) (UniProt Q8NEV4)
PRKG2 (human) = PRKG2 (human) (UniProt Q13237)
AURKB (human) = AURKB (human) (UniProt Q96GD4)
MAPK12 (human) = MAPK12 (human) (UniProt P53778)
LCK (human) = LCK (human) (UniProt P06239)
ULK3 (human) = ULK3 (human) (UniProt Q6PHR2)
NEK3 (human) = NEK3 (human) (UniProt P51956)
EIF2AK1 (human) = EIF2AK1 (human) (UniProt Q9BQI3)
STK38L (human) = STK38L (human) (UniProt Q9Y2H1)
AURKA (human) = AURKA (human) (UniProt O14965)
IGF1R (human) = IGF1R (human) (UniProt P08069)
MAP4K1 (human) = MAP4K1 (human) (UniProt Q92918)
TAOK3 (human) = TAOK3 (human) (UniProt Q9H2K8)
BLK (human) = BLK (human) (UniProt P51451)
YSK4 (human) = YSK4 (human) (UniProt Q56UN5)
MAPK9 (human) = MAPK9 (human) (UniProt P45984)
RAF1 (human) = RAF1 (human) (UniProt P04049)
DAPK1 (human) = DAPK1 (human) (UniProt P53355)
SRC (human) = SRC (human) (UniProt P12931)
TEK (human) = TEK (human) (UniProt Q02763)
STK3 (human) = STK3 (human) (UniProt Q13188)
MST4 (human) = MST4 (human) (UniProt Q9P289)
INSRR (human) = INSRR (human) (UniProt P14616)
EPHB4 (human) = EPHB4 (human) (UniProt P54760)
LATS2 (human) = LATS2 (human) (UniProt Q9NRM7)
NEK11 (human) = NEK11 (human) (UniProt Q8NG66)
MAPK10 (human) = MAPK10 (human) (UniProt P53779)
TAOK2 (human) = TAOK2 (human) (UniProt Q9UL54)
CHEK1 (human) = CHEK1 (human) (UniProt O14757)
BRSK2 (human) = BRSK2 (human) (UniProt Q8IWQ3)
PIP5K1A (human) = PIP5K1A (human) (UniProt Q99755)
SIK1 (human) = SIK1 (human) (UniProt P57059)
CSNK1G1 (human) = CSNK1G1 (human) (UniProt Q9HCP0)
DDR2 (human) = DDR2 (human) (UniProt Q16832)
CSNK2A2 (human) = CSNK2A2 (human) (UniProt P19784)
TNIK (human) = TNIK (human) (UniProt Q9UKE5)
MAPKAPK2 (human) = MAPKAPK2 (human) (UniProt P49137)
CDK5 (human) = CDK5 (human) (UniProt Q00535)
HUNK (human) = HUNK (human) (UniProt P57058)
DYRK2 (human) = DYRK2 (human) (UniProt Q92630)
NLK (human) = NLK (human) (UniProt Q9UBE8)

PRKG2 (human), sequence (Q13237 whole entry, looked up): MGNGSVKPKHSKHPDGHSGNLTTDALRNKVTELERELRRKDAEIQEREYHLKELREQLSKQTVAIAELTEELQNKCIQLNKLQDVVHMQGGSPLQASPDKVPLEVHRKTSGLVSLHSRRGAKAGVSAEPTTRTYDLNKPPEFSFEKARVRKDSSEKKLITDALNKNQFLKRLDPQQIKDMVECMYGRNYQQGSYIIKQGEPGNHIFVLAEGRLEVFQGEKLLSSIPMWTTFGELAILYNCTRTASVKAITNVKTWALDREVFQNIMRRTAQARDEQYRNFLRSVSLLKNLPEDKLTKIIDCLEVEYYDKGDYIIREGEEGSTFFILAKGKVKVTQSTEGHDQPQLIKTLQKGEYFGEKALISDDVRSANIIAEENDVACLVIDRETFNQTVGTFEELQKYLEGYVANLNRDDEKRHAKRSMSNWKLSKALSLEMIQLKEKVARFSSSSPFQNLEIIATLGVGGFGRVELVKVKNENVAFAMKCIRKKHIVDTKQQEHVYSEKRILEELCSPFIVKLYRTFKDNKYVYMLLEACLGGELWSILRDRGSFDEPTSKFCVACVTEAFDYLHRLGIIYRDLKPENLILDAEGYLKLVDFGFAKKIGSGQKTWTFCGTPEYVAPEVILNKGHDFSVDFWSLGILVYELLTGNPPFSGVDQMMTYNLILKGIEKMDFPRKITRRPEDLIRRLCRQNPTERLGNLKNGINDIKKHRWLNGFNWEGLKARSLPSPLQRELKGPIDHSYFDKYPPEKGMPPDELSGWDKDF
BLK (human), sequence (P51451 whole entry, looked up): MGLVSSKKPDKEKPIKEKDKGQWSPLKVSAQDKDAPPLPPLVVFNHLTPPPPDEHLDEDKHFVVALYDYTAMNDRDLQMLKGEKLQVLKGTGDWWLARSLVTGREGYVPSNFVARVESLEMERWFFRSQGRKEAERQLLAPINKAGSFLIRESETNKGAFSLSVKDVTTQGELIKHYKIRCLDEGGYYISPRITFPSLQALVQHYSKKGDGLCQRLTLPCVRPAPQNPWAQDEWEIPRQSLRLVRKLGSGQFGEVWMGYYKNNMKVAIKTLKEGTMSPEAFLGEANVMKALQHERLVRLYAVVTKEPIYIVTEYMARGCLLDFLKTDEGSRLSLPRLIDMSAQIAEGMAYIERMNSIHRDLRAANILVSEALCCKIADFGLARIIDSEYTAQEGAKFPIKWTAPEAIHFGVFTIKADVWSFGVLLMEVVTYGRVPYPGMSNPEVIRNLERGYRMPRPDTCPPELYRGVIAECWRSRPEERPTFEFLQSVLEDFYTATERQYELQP
MST4 (human), sequence (Q9P289 whole entry, looked up): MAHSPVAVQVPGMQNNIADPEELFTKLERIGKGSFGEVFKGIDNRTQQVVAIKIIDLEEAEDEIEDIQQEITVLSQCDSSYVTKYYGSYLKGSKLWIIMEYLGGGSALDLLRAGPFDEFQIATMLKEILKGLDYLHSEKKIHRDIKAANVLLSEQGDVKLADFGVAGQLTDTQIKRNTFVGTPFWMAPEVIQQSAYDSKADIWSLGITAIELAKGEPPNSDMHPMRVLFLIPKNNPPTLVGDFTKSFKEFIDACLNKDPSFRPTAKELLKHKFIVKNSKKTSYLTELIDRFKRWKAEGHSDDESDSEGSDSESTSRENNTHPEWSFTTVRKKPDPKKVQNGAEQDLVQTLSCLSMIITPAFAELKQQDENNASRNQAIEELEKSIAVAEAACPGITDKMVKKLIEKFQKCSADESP
IGF1R (human), sequence (P08069 whole entry, looked up): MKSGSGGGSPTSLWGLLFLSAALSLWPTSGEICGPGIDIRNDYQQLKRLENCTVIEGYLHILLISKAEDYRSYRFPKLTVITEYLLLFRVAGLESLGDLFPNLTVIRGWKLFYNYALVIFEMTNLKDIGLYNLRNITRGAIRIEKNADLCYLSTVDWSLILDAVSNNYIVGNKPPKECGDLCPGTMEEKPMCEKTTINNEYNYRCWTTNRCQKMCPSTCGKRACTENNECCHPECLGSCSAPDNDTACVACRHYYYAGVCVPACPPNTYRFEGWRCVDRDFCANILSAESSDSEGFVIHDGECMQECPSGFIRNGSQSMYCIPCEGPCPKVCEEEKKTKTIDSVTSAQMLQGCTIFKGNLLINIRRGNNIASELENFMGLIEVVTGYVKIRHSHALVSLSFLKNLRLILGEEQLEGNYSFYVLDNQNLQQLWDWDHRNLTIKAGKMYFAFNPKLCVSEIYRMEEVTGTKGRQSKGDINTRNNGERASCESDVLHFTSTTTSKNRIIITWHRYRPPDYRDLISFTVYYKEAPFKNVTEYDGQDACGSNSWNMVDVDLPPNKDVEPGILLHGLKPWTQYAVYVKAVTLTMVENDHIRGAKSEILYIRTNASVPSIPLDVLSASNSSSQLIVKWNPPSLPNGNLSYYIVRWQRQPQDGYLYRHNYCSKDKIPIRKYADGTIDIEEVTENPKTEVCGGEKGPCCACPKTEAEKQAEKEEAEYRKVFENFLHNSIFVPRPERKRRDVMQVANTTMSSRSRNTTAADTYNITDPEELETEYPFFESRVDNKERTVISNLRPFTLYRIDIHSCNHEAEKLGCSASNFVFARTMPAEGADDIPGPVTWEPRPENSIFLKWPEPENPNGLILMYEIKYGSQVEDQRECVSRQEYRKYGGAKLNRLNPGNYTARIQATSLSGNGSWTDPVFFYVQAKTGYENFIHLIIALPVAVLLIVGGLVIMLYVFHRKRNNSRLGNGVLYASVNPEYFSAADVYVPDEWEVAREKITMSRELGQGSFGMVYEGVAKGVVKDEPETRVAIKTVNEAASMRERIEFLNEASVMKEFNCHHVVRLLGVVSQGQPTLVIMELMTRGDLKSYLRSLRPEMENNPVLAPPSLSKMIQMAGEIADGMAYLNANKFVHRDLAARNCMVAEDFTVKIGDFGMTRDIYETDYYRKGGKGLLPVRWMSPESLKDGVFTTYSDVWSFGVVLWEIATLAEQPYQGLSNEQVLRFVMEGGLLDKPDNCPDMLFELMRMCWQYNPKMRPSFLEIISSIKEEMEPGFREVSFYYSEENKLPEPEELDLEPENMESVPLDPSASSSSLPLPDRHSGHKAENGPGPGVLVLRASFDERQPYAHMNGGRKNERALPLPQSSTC
SIK1 (human), sequence (P57059 whole entry, looked up): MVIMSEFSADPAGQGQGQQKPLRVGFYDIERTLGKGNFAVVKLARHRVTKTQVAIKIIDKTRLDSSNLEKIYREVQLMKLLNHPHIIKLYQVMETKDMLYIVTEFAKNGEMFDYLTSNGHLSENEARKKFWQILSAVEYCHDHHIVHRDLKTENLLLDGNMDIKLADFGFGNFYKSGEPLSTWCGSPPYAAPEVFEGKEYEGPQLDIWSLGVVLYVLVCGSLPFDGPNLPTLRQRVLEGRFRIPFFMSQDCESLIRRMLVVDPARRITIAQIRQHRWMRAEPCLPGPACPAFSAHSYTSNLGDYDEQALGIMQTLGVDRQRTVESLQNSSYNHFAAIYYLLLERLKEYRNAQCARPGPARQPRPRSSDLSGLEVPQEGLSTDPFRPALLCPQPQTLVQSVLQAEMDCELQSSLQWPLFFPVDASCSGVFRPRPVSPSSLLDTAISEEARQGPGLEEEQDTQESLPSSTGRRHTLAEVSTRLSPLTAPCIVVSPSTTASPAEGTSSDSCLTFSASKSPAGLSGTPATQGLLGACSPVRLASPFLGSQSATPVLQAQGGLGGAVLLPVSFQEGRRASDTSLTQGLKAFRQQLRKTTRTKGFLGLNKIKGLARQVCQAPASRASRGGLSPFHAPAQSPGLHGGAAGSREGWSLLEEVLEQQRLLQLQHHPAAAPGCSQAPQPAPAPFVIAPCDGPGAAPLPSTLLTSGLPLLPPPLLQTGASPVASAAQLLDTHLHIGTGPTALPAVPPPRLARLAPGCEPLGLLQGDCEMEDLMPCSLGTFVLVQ
ULK3 (human), sequence (Q6PHR2 whole entry, looked up): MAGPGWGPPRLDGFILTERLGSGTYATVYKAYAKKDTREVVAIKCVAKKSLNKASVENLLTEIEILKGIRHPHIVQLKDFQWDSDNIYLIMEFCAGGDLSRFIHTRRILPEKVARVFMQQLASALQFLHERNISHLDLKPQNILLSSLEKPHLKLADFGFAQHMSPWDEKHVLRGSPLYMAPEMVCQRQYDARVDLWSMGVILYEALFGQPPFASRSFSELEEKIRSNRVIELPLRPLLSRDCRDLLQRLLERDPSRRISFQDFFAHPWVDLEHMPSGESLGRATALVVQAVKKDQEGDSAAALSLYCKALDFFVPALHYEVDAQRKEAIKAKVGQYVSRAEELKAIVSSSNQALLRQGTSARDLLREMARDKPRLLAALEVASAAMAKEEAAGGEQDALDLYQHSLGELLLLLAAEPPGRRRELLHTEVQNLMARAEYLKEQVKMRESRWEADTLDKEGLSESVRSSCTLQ
CDK5 (human), sequence (Q00535 whole entry, looked up): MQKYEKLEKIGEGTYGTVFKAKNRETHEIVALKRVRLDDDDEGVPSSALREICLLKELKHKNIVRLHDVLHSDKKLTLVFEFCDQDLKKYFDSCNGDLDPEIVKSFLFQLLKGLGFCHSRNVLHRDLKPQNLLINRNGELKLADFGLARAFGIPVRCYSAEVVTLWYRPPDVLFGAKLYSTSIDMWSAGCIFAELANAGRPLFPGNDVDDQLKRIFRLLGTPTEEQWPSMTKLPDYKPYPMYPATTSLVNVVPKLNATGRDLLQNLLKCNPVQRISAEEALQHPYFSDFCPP
MAPK9 (human), sequence (P45984 whole entry, looked up): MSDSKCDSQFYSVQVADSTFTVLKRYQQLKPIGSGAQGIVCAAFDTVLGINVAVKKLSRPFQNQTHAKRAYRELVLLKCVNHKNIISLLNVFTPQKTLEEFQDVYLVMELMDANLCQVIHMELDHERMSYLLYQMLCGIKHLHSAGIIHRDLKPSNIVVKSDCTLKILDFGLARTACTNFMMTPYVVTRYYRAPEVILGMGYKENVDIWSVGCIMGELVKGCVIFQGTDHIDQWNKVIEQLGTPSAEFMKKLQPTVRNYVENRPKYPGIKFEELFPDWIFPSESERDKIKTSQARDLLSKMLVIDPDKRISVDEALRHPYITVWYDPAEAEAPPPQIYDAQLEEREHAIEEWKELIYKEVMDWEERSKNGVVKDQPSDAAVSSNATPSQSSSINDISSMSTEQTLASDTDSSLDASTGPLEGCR

Work on `CCc1nc(-c2cccc(C)c2)c(-c2ccnc(NC(=O)c3ccccc3)c2)s1` yielded a kinase still bound, per cent of control (MYO3A (human)) of 60%, a kinase still bound, per cent of control (PRKG2 (human)) of 100% and a kinase still bound, per cent of control (AURKB (human)) of 100%. The kinase still bound, per cent of control (MAPK12 (human)) was 100%, the kinase still bound, per cent of control (LCK (human)) was 41% and the kinase still bound, per cent of control (ULK3 (human)) was 88%. It also gave a kinase still bound, per cent of control (NEK3 (human)) of 100%, a kinase still bound, per cent of control (EIF2AK1 (human)) of 100% and a kinase still bound, per cent of control (STK38L (human)) of 96%. It also gave a kinase still bound, per cent of control (AURKA (human)) of 90%, a kinase still bound, per cent of control (IGF1R (human)) of 100% and a kinase still bound, per cent of control (MAP4K1 (human)) of 86%. For the same compound, the kinase still bound, per cent of control (TAOK3 (human)) was 86%, the kinase still bound, per cent of control (BLK (human)) was 17% and the kinase still bound, per cent of control (YSK4 (human)) was 64%. It also gave a kinase still bound, per cent of control (MAPK9 (human)) of 0%, a kinase still bound, per cent of control (RAF1 (human)) of 34% and a kinase still bound, per cent of control (DAPK1 (human)) of 72%. It also gave a kinase still bound, per cent of control (SRC (human)) of 14%, a kinase still bound, per cent of control (TEK (human)) of 94% and a kinase still bound, per cent of control (STK3 (human)) of 97%. For the same compound, the kinase still bound, per cent of control (MST4 (human)) was 100%, the kinase still bound, per cent of control (INSRR (human)) was 100% and the kinase still bound, per cent of control (EPHB4 (human)) was 53%. It also gave a kinase still bound, per cent of control (LATS2 (human)) of 90%, a kinase still bound, per cent of control (NEK11 (human)) of 100% and a kinase still bound, per cent of control (MAPK10 (human)) of 0%. For the same compound, the kinase still bound, per cent of control (TAOK2 (human)) was 86%, the kinase still bound, per cent of control (CHEK1 (human)) was 77% and the kinase still bound, per cent of control (BRSK2 (human)) was 95%. The kinase still bound, per cent of control (PIP5K1A (human)) was 100%, the kinase still bound, per cent of control (SIK1 (human)) was 100% and the kinase still bound, per cent of control (CSNK1G1 (human)) was 28%. For the same compound, the kinase still bound, per cent of control (DDR2 (human)) was 16%, the kinase still bound, per cent of control (CSNK2A2 (human)) was 86% and the kinase still bound, per cent of control (TNIK (human)) was 5.5%. It also gave a kinase still bound, per cent of control (MAPKAPK2 (human)) of 100%, a kinase still bound, per cent of control (CDK5 (human)) of 100% and a kinase still bound, per cent of control (HUNK (human)) of 15%. For the same compound, the kinase still bound, per cent of control (DYRK2 (human)) was 99% and the kinase still bound, per cent of control (NLK (human)) was 4%.
In the case of `C=CC(=O)Nc1ccc(C(=O)c2sc(Nc3ccc(N4CCN(C)CC4)cc3OC)nc2N)cc1`, the kinase still bound, per cent of control (MYO3A (human)) is reported as 35%, the kinase still bound, per cent of control (PRKG2 (human)) is reported as 81% and the kinase still bound, per cent of control (AURKB (human)) is reported as 62%. For the same compound, the kinase still bound, per cent of control (MAPK12 (human)) was 100%, the kinase still bound, per cent of control (LCK (human)) was 89% and the kinase still bound, per cent of control (ULK3 (human)) was 35%. The kinase still bound, per cent of control (NEK3 (human)) was 70%, the kinase still bound, per cent of control (EIF2AK1 (human)) was 100% and the kinase still bound, per cent of control (STK38L (human)) was 68%. It also gave a kinase still bound, per cent of control (AURKA (human)) of 93%, a kinase still bound, per cent of control (IGF1R (human)) of 86% and a kinase still bound, per cent of control (MAP4K1 (human)) of 84%. It also gave a kinase still bound, per cent of control (TAOK3 (human)) of 23%, a kinase still bound, per cent of control (BLK (human)) of 100% and a kinase still bound, per cent of control (YSK4 (human)) of 70%. The kinase still bound, per cent of control (MAPK9 (human)) was 7%, the kinase still bound, per cent of control (RAF1 (human)) was 97% and the kinase still bound, per cent of control (DAPK1 (human)) was 9.4%. The kinase still bound, per cent of control (SRC (human)) was 100%, the kinase still bound, per cent of control (TEK (human)) was 89% and the kinase still bound, per cent of control (STK3 (human)) was 98%. The kinase still bound, per cent of control (MST4 (human)) was 99%, the kinase still bound, per cent of control (INSRR (human)) was 78% and the kinase still bound, per cent of control (EPHB4 (human)) was 100%. It also gave a kinase still bound, per cent of control (LATS2 (human)) of 100%, a kinase still bound, per cent of control (NEK11 (human)) of 68% and a kinase still bound, per cent of control (MAPK10 (human)) of 6.4%. For the same compound, the kinase still bound, per cent of control (TAOK2 (human)) was 20%, the kinase still bound, per cent of control (CHEK1 (human)) was 73% and the kinase still bound, per cent of control (BRSK2 (human)) was 72%. It also gave a kinase still bound, per cent of control (PIP5K1A (human)) of 34%, a kinase still bound, per cent of control (SIK1 (human)) of 83% and a kinase still bound, per cent of control (CSNK1G1 (human)) of 18%. For the same compound, the kinase still bound, per cent of control (DDR2 (human)) was 100%, the kinase still bound, per cent of control (CSNK2A2 (human)) was 37% and the kinase still bound, per cent of control (TNIK (human)) was 6%. It also gave a kinase still bound, per cent of control (MAPKAPK2 (human)) of 99%, a kinase still bound, per cent of control (CDK5 (human)) of 86% and a kinase still bound, per cent of control (HUNK (human)) of 33%. For the same compound, the kinase still bound, per cent of control (DYRK2 (human)) was 4.2% and the kinase still bound, per cent of control (NLK (human)) was 76%.
With `CNC(=O)Nc1ccc(-c2nc(N3CC4CCC(C3)O4)c3cnn(C4CCC5(CC4)OCCO5)c3n2)cc1` the kinase still bound, per cent of control (MYO3A (human)) was 52%, the kinase still bound, per cent of control (PRKG2 (human)) was 88% and the kinase still bound, per cent of control (AURKB (human)) was 92%. It also gave a kinase still bound, per cent of control (MAPK12 (human)) of 54%, a kinase still bound, per cent of control (LCK (human)) of 100% and a kinase still bound, per cent of control (ULK3 (human)) of 92%. It also gave a kinase still bound, per cent of control (NEK3 (human)) of 100%, a kinase still bound, per cent of control (EIF2AK1 (human)) of 100% and a kinase still bound, per cent of control (STK38L (human)) of 100%. For the same compound, the kinase still bound, per cent of control (AURKA (human)) was 100%, the kinase still bound, per cent of control (IGF1R (human)) was 93% and the kinase still bound, per cent of control (MAP4K1 (human)) was 94%. The kinase still bound, per cent of control (TAOK3 (human)) was 90%, the kinase still bound, per cent of control (BLK (human)) was 96% and the kinase still bound, per cent of control (YSK4 (human)) was 100%. It also gave a kinase still bound, per cent of control (MAPK9 (human)) of 85%, a kinase still bound, per cent of control (RAF1 (human)) of 100% and a kinase still bound, per cent of control (DAPK1 (human)) of 12%. For the same compound, the kinase still bound, per cent of control (SRC (human)) was 75%, the kinase still bound, per cent of control (TEK (human)) was 100% and the kinase still bound, per cent of control (STK3 (human)) was 97%. It also gave a kinase still bound, per cent of control (MST4 (human)) of 70%, a kinase still bound, per cent of control (INSRR (human)) of 100% and a kinase still bound, per cent of control (EPHB4 (human)) of 100%. For the same compound, the kinase still bound, per cent of control (LATS2 (human)) was 76%, the kinase still bound, per cent of control (NEK11 (human)) was 99% and the kinase still bound, per cent of control (MAPK10 (human)) was 86%. It also gave a kinase still bound, per cent of control (TAOK2 (human)) of 100%, a kinase still bound, per cent of control (CHEK1 (human)) of 100% and a kinase still bound, per cent of control (BRSK2 (human)) of 100%. The kinase still bound, per cent of control (PIP5K1A (human)) was 84%, the kinase still bound, per cent of control (SIK1 (human)) was 86% and the kinase still bound, per cent of control (CSNK1G1 (human)) was 54%. The kinase still bound, per cent of control (DDR2 (human)) was 100%, the kinase still bound, per cent of control (CSNK2A2 (human)) was 100% and the kinase still bound, per cent of control (TNIK (human)) was 100%. For the same compound, the kinase still bound, per cent of control (MAPKAPK2 (human)) was 82%, the kinase still bound, per cent of control (CDK5 (human)) was 88% and the kinase still bound, per cent of control (HUNK (human)) was 100%. It also gave a kinase still bound, per cent of control (DYRK2 (human)) of 90% and a kinase still bound, per cent of control (NLK (human)) of 85%.
